The text below walks through data of patent US8124582B2, “Treatment of diabetes” (FibroGen, Inc., priority 2002, dated 2012).

Assay [1] concerns HIF-1α. In words: HIF-1α stabilization in cells, TRANSAM HIF-1 ELISA of nuclear fractions. It counts as cell-based, Human. The note with it: epithelial cells (293A) and hepatocellular carcinoma (Hep3B); FIG. 12B. How it is done:
Stabilization of HIFα using compounds and methods of the present invention was examined as follows. Human cells derived from adenovirus-transformed fetal kidney epithelium (293A), cervical epithelial adenocarcinoma (HeLa), hepatocellular carcinoma (Hep3B), squamous carcinoma (SSC-25), and lung fibroblast (HLF) (see, e.g., American Type Culture Collection, Manassas Va.; and Qbiogene, Carlsbad Calif.) were separately seeded into 100 mm culture dishes and grown at 37° C., 20% O2, 10% CO2 in media as follows: HeLa cells in Dulbecco's Modification of Eagle's Medium (DMEM), 2% fetal bovine serum (FBS); HLF cells in DMEM, 10%FBS; 293A cells in DMEM, 5%FBS; and Hep3B cells in Minimal Essential Medium (MEM), Earle's BSS (Mediatech Inc., Herndon Va.), 2 mM L-glutamine, 0.1 mM non-essential amino acids, 1 mM sodium pyruvate, 10% FBS. When cell layers reached confluence, the media was replaced with OPTI-MEM media (Invitrogen Life Technologies, Carlsbad Calif.) and cell layers were incubated for approximately 24 hours in 20% O2, 10% CO2 at 37° C. Compound of the invention (one of compounds B, F, G, and H) or DMSO (0.5 to 1%) was then added to existing medium, and incubation was continued overnight.
Alternatively, nuclear fractions were prepared using a Nuclear Extract kit (Active Motif, Carlsbad Calif.) and were analyzed for HIF-1α using a TRANSAM HIF-1 ELISA kit (Active Motif) according to the manufacturer's instructions.
For orientation: ELISA stands for enzyme-linked immunosorbent assay.

Assay [2] in a line: Blood glucose levels after 14 days oral dosing. It counts as in vivo, male Sprague Dawley rats. Conditions: rats, 20, 60, 100, or 200 mg/kg oral gavage once daily for 14 days, overnight fast, day 15; FIG. 4. How it is done: The effect of compound administration on blood glucose levels was examined as follows. Fifty male Sprague Dawley rats (6-7 weeks old) obtained from Simonsen, Inc. were dosed with 0.5% CMC (Sigma-Aldrich) or compound B at 20, 60, 100, or 200 mg/kg body weight by oral gavage once daily for 14 consecutive days. Animals were monitored for changes in body weight and signs of overt toxicity and mortality. […] One sample of approximately 1 ml was collected into tubes containing EDTA for hematological analysis, and a second sample of approximately 1 ml was collected into a tube with no anticoagulant for serum chemistry analysis. Blood sample analyses were performed by IDEXX (West Sacramento, Calif.).

In assay [3] the test system is GluT-1. In words: In vivo GluT-1 gene expression in kidney, dose response (microarray). Further details: species or system Swiss Webster male mice. Conditions: mice, low dose (30 mg/ml) or high dose (100 mg/ml), oral gavage once per day for 4 days; FIG. 3A. The protocol: To investigate the dose response of compounds of the present invention, twelve Swiss Webster male mice (30-32 g) (obtained from Simonsen, Inc., Gilroy Calif.) were treated by oral gavage once per day for 4 days with a 4 ml/kg volume of either 0.5% carboxymethyl cellulose (CMC; Sigma-Aldrich, St. […] Four hours after the final dose, animals were anesthetized, sacrificed, and approximately 150 mg of liver and each kidney were isolated and stored in RNALATER solution (Ambion) at −20° C.
RNA from tissues obtained from the experiments described above was isolated using the following protocol. A 50 mg section of each organ was diced, 875 μl of RLT buffer (RNEASY kit; Qiagen Inc., Valencia Calif.) was added, and the pieces were homogenized for about 20 seconds using a rotor-stator POLYTRON homogenizer (Kinematica, Inc., Cincinnati Ohio). […] The RNA was eluted into 80 μL of water and quantitated with RIBOGREEN reagent (Molecular Probes, Eugene Oreg.). […] The absorbance at 260 and 280 nm was measured to determine RNA purity and concentration.
Alternatively, tissue samples were diced and homogenized in TRIZOL reagent (Invitrogen Life Technologies, Carlsbad Calif.) using a rotor-stator POLYTRON homogenizer (Kinematica). […] The absorbance at 260 and 280 nm was measured to determine RNA purity and concentration. […]

`O=C(O)CNC(=O)c1nc(Cl)c2ccccc2c1O` [compound B, [(1-Chloro4-hydroxy-isoquinoline-3-carbonyl)-amino]-acetic acid]: the “HIFα stabilization and accumulation (ELISA) compared to vehicle-treated control cells” value in assay [1] is “stabilization and accumulation of HIFα”. For the same compound, in assay [2], the blood glucose levels result was “dose-dependent decrease”. For the same compound, the “expression of the gene encoding GluT-1 in kidney” value in assay [3] was “dose-dependent alteration”.
